Reference: the NIST ThermoML archive (doi:10.1016/j.fluid.2006.10.016)
± gives the expanded uncertainty stated by the source.

Test: activity coefficient (dimensionless); of the first substance listed, at infinite dilution; xn = mol fraction of the nth substance listed
Details: Liquid, x1 = 0

Row | SMILES | activity coefficient (297 K) | activity coefficient (307 K) | activity coefficient (316 K) | activity coefficient (325 K) | activity coefficient (335 K) | activity coefficient (344 K)
1 | CCCCCCCCC [nonane] + CCCC[n+]1ccc(C)cc1.F[B-](F)(F)F | 309 ± 59 | 275 ± 52 | 241 ± 46 | 229 ± 43 | 201 ± 38 | 201 ± 38
2 | CCCCCCCCCC [decane] + CCCC[n+]1ccc(C)cc1.F[B-](F)(F)F | 491 ± 94 | 430 ± 82 | 389 ± 74 | 359 ± 68 | 320 ± 61 | 283 ± 54
3 | CCCCCCCC [octane] + CCCC[n+]1ccc(C)cc1.F[B-](F)(F)F | 182 ± 34 | 170 ± 32 | 158 ± 30 | 142 ± 27 | 124 ± 23 | 119 ± 22
